Source: ChEMBL document CHEMBL1144039, “Antioxidant capacity of BO-653, 2,3-dihydro-5-hydroxy-4,6-di-tert-butyl-2,2-dipentylbenzofuran, and uric acid as evaluated by ORAC method and inhibition of lipid peroxidation” (2008)

Experiments:
Plasma = assay: Antioxidant activity in human plasma assessed as inhibition of cholesteryl ester hydroperoxide formation after 60 mins relative to control; format: functional
[1] = Antioxidant activity assessed as oxygen radical scavenging activity in presence of human plasma by ORAC method relative to control; format: functional, cell-free

Structure (SMILES) | Ratio (Plasma) | Ratio AUC [1]
CCCCCC1(CCCCC)Cc2c(cc(C(C)(C)C)c(O)c2C(C)(C)C)O1 [BO-653] | 0.23 | 1.23
Oc1nc(O)c2nc(O)[nH]c2n1 [URIC ACID] | 0.78 | 1.52
